US10159265B2, “Feed composition for reducing ruminant methanogenesis” (priority 2012, dated 2018)
Marks after values point to notes of the source that are not given here.

What was measured:
[1] = tested on: "in vitro" rumen fluid culture; assay: Biogas production in "in vitro" rumen fluid culture (pressure meter); format: cell-based, calves; design: Average biogas production / Cumulative biogas production / Biogas production: unit not given here; conditions: Exp 1; for Average biogas production: average over doses and incubation times
Description: (§1) Two trials following an identical experimental protocol were designed to study the effect of different pure flavonoids on rumen fermentation using a simulatory “in vitro” system based on the experimental protocol described by Theodorou M K et al. (1994) Animal Feed Science and Technology, 48 (3), p. 185-197; Mauricio, R. M., et al. (1999) Animal Feed Science and Technology 79, 321-330.
Gas production was determined from a semi-automatic pressure meter, the relationship between pressure levels and the produced gas volume was previously calculated.
(§2) Rumen cannulated calves which received a mixed ration mainly composed of concentrate (90:10) were used as rumen fluid donor; feed composition is presented in Table 1. The inoculum was collected and filtered through two-layer surgical gauze and kept in thermo pots. Flavonoids (Table 2) plus 600 mg of concentrate (Table 1) and 60 mg of barley straw as the substrate were dosed by triplicate in preheated bottles (39° C.) and maintained under anaerobic conditions. Flavonoids isonaringin, neoeritrocin, poncirin were purchased from INDOFINE Chemical Company, Inc (USA). 10 ml of rumen fluid and 40 ml of incubation medium were added to the bottles (McDougall, El (1948) Studies on ruminant saliva. 1. The composition and output of sheep's saliva. Biochem J. 43(1) 99-109). Once the bottles were filled and the anaerobic condition was applied, the bottles were sealed and the incubation process was started in a hot water bath. […] Each sample was incubated in triplicate in two sets or batches.

[2] = tested on: methanogenic (archea) populations; assay: Methane production in "in vitro" rumen fluid culture; format: cell-based, calves; design: Average methane production / Accumulated methane production / Methane production / Cumulative methane production: unit not given here; conditions: Exp 1
From the text: as §1, §2
The effects of flavonoids substances on fermentation activity of certain archea populations which are theoretically responsible for the methane production were analyzed.
The experimental design allows determining whether the effect of flavonoids on methane reduction was derived from a general reduction in microbial activity and biogas production or contrarily flavonoid affects specifically on methanogenic (archea) populations. The presence of flavonoids in the culture medium reduced methane contribution in the total biogas production (P<0.05) although, again, the aforementioned impact was heterogeneous.

[3] = tested on: "in vitro" ruminal fluid cultures; assay: Volatile fatty acid concentration and molar proportions in "in vitro" ruminal fluid cultures; format: cell-based, calves; conditions: for % Acetate, molar ratio, average (μ) / % Butyrate, molar ratio, average (μ) / % Propionate, molar ratio, average (M) / VFA concentration, average (μ): average over incubation times
From the text: as §1
(§3) Rumen cannulated calves which received a mixed ration mainly composed of concentrate (90:10) were used as rumen fluid donor; feed composition is presented in Table 1. The inoculum was collected and filtered through two-layer surgical gauze and kept in thermo pots. Flavonoids (Table 2) plus 600 mg of concentrate (Table 1) and 60 mg of barley straw as the substrate were dosed by triplicate in preheated bottles (39° C.) and maintained under anaerobic conditions. Flavonoids isonaringin, neoeritrocin, poncirin were purchased from INDOFINE Chemical Company, Inc (USA). 10 ml of rumen fluid and 40 ml of incubation medium were added to the bottles (McDougall, El (1948) Studies on ruminant saliva. 1. The composition and output of sheep's saliva. Biochem J. 43(1) 99-109). Once the bottles were filled and the anaerobic condition was applied, the bottles were sealed and the incubation process was started in a hot water bath. Pressure readings were made at 2, 4, 6, 8, 12, 24, 36 and 48 hours. Each sample was incubated in triplicate in two sets or batches.
[…] P., 1982 Science des Aliments 2, 131-144), lactate (Taylor, K. A. C. C., 1996. Appl. Biochem. Biotechnol. Enzym. Eng. Biotechnol. 56, 49-58) and ammonia (Chaney, A. L., Marbach, E. P., 1962. Clin. Chem. 8, 130-132) analyses.

[4] = tested on: "in vitro" ruminal fluid cultures; assay: Ammonia (N-NH3) concentration in "in vitro" ruminal fluid cultures; format: cell-based, calves; conditions: for N-NH3 concentration, average (M): average over incubation times
From the text: as §1, §3
(§4) After 12 hours of incubation, one bottle (replicate) from each treatment was opened, pH was recorded and the bottle was sampled for volatile fatty acids (Jouany, J. P., 1982 Science des Aliments 2, 131-144), lactate (Taylor, K. A. C. C., 1996. Appl. Biochem. Biotechnol. Enzym. Eng. Biotechnol. 56, 49-58) and ammonia (Chaney, A. L., Marbach, E. P., 1962. Clin. Chem. 8, 130-132) analyses.

[5] = tested on: "in vitro" ruminal fluid culture; assay: Lactate concentration in "in vitro" ruminal fluid culture; format: cell-based, calves; conditions: 12 hours of incubation
From the text: as §1, §3, §4

[6] = tested on: ruminal bacteria; assay: Bacterial DNA concentration by qPCR; format: cell-based, calves; conditions: 12 hours of incubation
Description: as §3, §4
(§5) The environmental DNA was extracted using the technique proposed by Yu and Morrison (2004). Quantification of Streptococcus bovis, Megasphaera elsdenii and Selenomonas ruminantium DNA was done by qPCR using specific primers (Tajima, K. et al. 2001. Appl. Environ. Microb. 67, 2766-2774; Ouwerkerk, D., et al. 2002. J. Appl. Microbiol. 92, 753-758). Results were statistically analyzed using the PROC MIXED procedure of SAS statistical package (SAS, 2000, User's guide: Statistics, version 8 editions inst., Inc., Cary, N.C.). The least significant difference was used to compare the means. Differences between means in which P<0.05 were accepted as significant.

[7] = tested on: Streptococcus bovis; assay: qPCR relative quantification of Streptococcus bovis; format: cell-based; conditions: 12 hours of incubation
Description: as §3, §4, §5

[8] = tested on: Selenomonas ruminantium; assay: qPCR relative quantification of Selenomonas ruminantium; format: cell-based; conditions: 12 hours of incubation
Description: as §3, §4, §5

[9] = tested on: Megasphaera elsdenii; assay: qPCR relative quantification of Megasphaera elsdenii; format: cell-based; conditions: 12 hours of incubation
Description: as §3, §4, §5

[10] = tested on: "in vitro" ruminal fluid cultures; assay: Ammonia (N-NH3) concentration in "in vitro" ruminal fluid cultures; format: cell-based, calves; conditions: 72 h
[11] = average over doses and incubation times

`COc1ccc([C@@H]2CC(=O)c3c(O)cc(O[C@@H]4O[C@H](CO[C@@H]5O[C@@H](C)[C@H](O)[C@@H](O)[C@H]5O)[C@@H](O)[C@H](O)[C@H]4O)cc3O2)cc1O` [Hesperidin, hesperidin] gave a Cumulative biogas production ([1]; 12 h incubation) of 187.19, a Cumulative biogas production ([1]; 24 h incubation) of 227.31 and a Cumulative biogas production ([1]; 48 h incubation) of 261.28. For the same compound, the Cumulative biogas production ([1]; 72 h incubation) was 282.84, the Average biogas production [1] was 239.65^cd and the Average biogas production ([1]; listed as hesperidin) was 239.6. For the same compound, the Biogas production ([1]; dose 1, 0.2 g/kg DM) was 239.91, the Biogas production ([1]; dose 2, 0.5 g/kg DM) was 239.4 and the Accumulated methane production ([2]; 12 h) was 21.08. The “Proportion of methane in the produced biogas” value (from here on “Proportion of methane”) ([2]; 12 h) was 11.26, the Accumulated methane production ([2]; 24 h) was 26.03 and the “Proportion of methane” value ([2]; 24 h) was 12.40. For the same compound, the Accumulated methane production ([2]; 48 h) was 31.54, the “Proportion of methane” value ([2]; 48 h) was 16.43 and the Accumulated methane production ([2]; 72 h) was 35.04. For the same compound, the “Proportion of methane” value ([2]; 72 h) was 16.55, the Average methane production [2, 11] was 28.42^cd and the “Proportion of methane” value [2, 11] was 14.16^cd. For the same compound, the Average methane production ([2]; average over doses and incubation times, listed as hesperidin) was “not modified”, the Methane production ([2]; dose 1, 0.2 g/kg DM) was 28.11 and the “Proportion of methane” value ([2]; dose 1, 0.2 g/kg DM) was 14.05. For the same compound, the Methane production ([2]; dose 2, 0.5 g/kg DM) was 28.74, the “Proportion of methane” value ([2]; dose 2, 0.5 g/kg DM) was 14.27 and the “% Acetate, molar ratio” value ([3]; 0 h) was 62.51 mol/100 mol. For the same compound, the “% Butyrate, molar ratio” value ([3]; 0 h) was 9.07 mol/100 mol, the “% Propionate, molar ratio” value ([3]; 0 h) was 20.03 mol/100 mol and the “A/P rate (acetate/propionate)” value ([3]; 0 h) was 3.12. The VFA concentration ([3]; 0 h (initial constant value)) was 13.78 mmol/L, the “% Acetate, molar ratio” value ([3]; 12 h) was 56.88 mol/100 mol and the “% Butyrate, molar ratio” value ([3]; 12 h) was 10.41 mol/100 mol. The “% Propionate, molar ratio” value ([3]; 12 h) was 27.22 mol/100 mol, the “A/P rate (acetate/propionate)” value ([3]; 12 h) was 2.09 and the VFA concentration ([3]; 12 h) was 38.25 mmol/L. The “% Acetate, molar ratio” value ([3]; 72 h) was 56.04 mol/100 mol, the “% Butyrate, molar ratio” value ([3]; 72 h) was 10.78 mol/100 mol and the “% Propionate, molar ratio” value ([3]; 72 h) was 25.80 mol/100 mol. The “A/P rate (acetate/propionate)” value ([3]; 72 h) was 2.17, the VFA concentration ([3]; 72 h) was 53.70 mmol/L and the “% Acetate, molar ratio, average (μ)” value [3] was 58.48 mol/100 mol. For the same compound, the “% Butyrate, molar ratio, average (μ)” value [3] was 10.08 ^ab mol/100 mol, the “% Propionate, molar ratio, average (M)” value [3] was 24.35 ^ab mol/100 mol and the “VFA concentration, average (μ)” value [3] was 35.25 mmol/L. For the same compound, the N-NH3 concentration ([4]; 0 h (initial constant value)) was 149.99 mg/L, the N-NH3 concentration ([4]; 12 h) was 187.36 mg/L and the “N-NH3 concentration, average (M)” value [4] was 220.15 mg/L. The Lactate [5] was 44.3 mg/L, the Lactate ([5]; listed as hesperidin) was “tended to moderate the recorded increase” and the “Bacteria DNA” value [6] was 9.18 ^a μg/ml. The “Relative Quantification 2^(ΔΔCt) S. bovis” value [7] was 0.58, the “Relative Quantification 2^(ΔΔCt) S. ruminantium” value [8] was 0.74 and the “Relative Quantification 2^(ΔΔCt) M. elsdenii” value [9] was 1.18 ^b. The N-NH3 concentration [10] was 323.11 mg/L.
`C[C@@H]1O[C@@H](OC[C@H]2O[C@@H](Oc3cc(O)c4c(c3)O[C@H](c3ccc(O)cc3)CC4=O)[C@H](O)[C@@H](O)[C@@H]2O)[C@H](O)[C@H](O)[C@H]1O` [Isonaringin, isonaringin] was tested, and the Cumulative biogas production ([1]; 12 h incubation) was 185.58, the Cumulative biogas production ([1]; 24 h incubation) was 223.38 and the Cumulative biogas production ([1]; 48 h incubation) was 258.85. For the same compound, the Cumulative biogas production ([1]; 72 h incubation) was 278.66, the Biogas production ([1]; dose 1, 0.2 g/kg DM) was 235.13 and the Biogas production ([1]; dose 2, 0.5 g/kg DM) was 238.1. For the same compound, the Accumulated methane production ([2]; 12 h) was 19.84, the “Proportion of methane” value ([2]; 12 h) was 10.68 and the Accumulated methane production ([2]; 24 h) was 24.94. The “Proportion of methane” value ([2]; 24 h) was 13.56, the Accumulated methane production ([2]; 48 h) was 30.81 and the “Proportion of methane” value ([2]; 48 h) was 16.79. For the same compound, the Accumulated methane production ([2]; 72 h) was 34.08, the “Proportion of methane” value ([2]; 72 h) was 16.89 and the Average methane production [2, 11] was 27.42^de. The “Proportion of methane” value [2, 11] was 14.48^bc, the Average methane production ([2]; average over doses and incubation times, listed as isonaringin) was “decreased” and the Methane production ([2]; dose 1, 0.2 g/kg DM) was 27.40. For the same compound, the “Proportion of methane” value ([2]; dose 1, 0.2 g/kg DM) was 14.53, the Methane production ([2]; dose 2, 0.5 g/kg DM) was 27.43 and the “Proportion of methane” value ([2]; dose 2, 0.5 g/kg DM) was 14.43. The “% Acetate, molar ratio” value ([3]; 0 h) was 62.51 mol/100 mol, the “% Butyrate, molar ratio” value ([3]; 0 h) was 9.07 mol/100 mol and the “% Propionate, molar ratio” value ([3]; 0 h) was 20.03 mol/100 mol. For the same compound, the “A/P rate (acetate/propionate)” value ([3]; 0 h) was 3.12, the VFA concentration ([3]; 0 h (initial constant value)) was 13.78 mmol/L and the “% Acetate, molar ratio” value ([3]; 12 h) was 53.94 mol/100 mol. The “% Butyrate, molar ratio” value ([3]; 12 h) was 10.31 mol/100 mol, the “% Propionate, molar ratio” value ([3]; 12 h) was 30.20 mol/100 mol and the “A/P rate (acetate/propionate)” value ([3]; 12 h) was 1.79. The VFA concentration ([3]; 12 h) was 36.49 mmol/L, the “% Acetate, molar ratio” value ([3]; 72 h) was 55.34 mol/100 mol and the “% Butyrate, molar ratio” value ([3]; 72 h) was 10.24 mol/100 mol. The “% Propionate, molar ratio” value ([3]; 72 h) was 26.94 mol/100 mol, the “A/P rate (acetate/propionate)” value ([3]; 72 h) was 2.06 and the VFA concentration ([3]; 72 h) was 52.26 mmol/L. The “% Acetate, molar ratio, average (μ)” value [3] was 57.26 mol/100 mol, the “% Butyrate, molar ratio, average (μ)” value [3] was 9.87 ^ab mol/100 mol and the “% Propionate, molar ratio, average (M)” value [3] was 25.72 ^b mol/100 mol. For the same compound, the “VFA concentration, average (μ)” value [3] was 34.18 mmol/L, the “% Propionate, molar ratio, average (M)” value ([3]; listed as isonaringin) was “improved” and the N-NH3 concentration ([4]; 0 h (initial constant value)) was 149.99 mg/L. For the same compound, the N-NH3 concentration ([4]; 12 h) was 165.46 mg/L, the “N-NH3 concentration, average (M)” value [4] was 212.66 mg/L and the Lactate [5] was 92.4 mg/L. For the same compound, the “Bacteria DNA” value [6] was 16.18 ^ab μg/ml, the “Relative Quantification 2^(ΔΔCt) S. bovis” value [7] was 0.46 and the “Relative Quantification 2^(ΔΔCt) S. ruminantium” value [8] was 0.86. The “Relative Quantification 2^(ΔΔCt) M. elsdenii” value [9] was 1.08 ^ab and the N-NH3 concentration [10] was 322.53 mg/L.
